Results published in article PMC6694196, “Intrinsic tryptophan fluorescence spectroscopy reliably determines galectin-ligand interactions” (Scientific Reports, 2019).
“And” between values parts separate entries of the source, which are not always exact repeats. Equal values may be shown once. “Also recorded” adds a separate entry of the source.

Experiments:
galectin-2 [1] = target: T1, galectin-2 (Homo sapiens, UniProt P05162); test: ITC of galectin-2-ligand interaction; assay type: binding; conditions: for binding by ITC (in words): 200 mM galactose
T1 construct: full length human galectin-2 (residues 1–132, UniProt code: P05162); 6xHis-SUMO (N, cleaved yes); made in house; host or cells: E. coli BL21(DE3)
T1 sequence (P05162 1-132): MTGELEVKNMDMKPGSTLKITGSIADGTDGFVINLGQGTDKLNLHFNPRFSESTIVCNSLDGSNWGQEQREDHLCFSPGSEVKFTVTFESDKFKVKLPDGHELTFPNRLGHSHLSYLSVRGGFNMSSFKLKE
Description: (§1) ITC experiments were performed at 25 °C using a MicroCal iTC200 microcalorimeter (Malvern Analytical Ltd, Malvern, UK) with 200 µl cell capacity and 40 µl injection syringe volume. All galectins were used at 100 µM in PBS and the binding ligands were prepared in identical buffers. […] F3 was titrated into galectin-3 at concentration of 20 mM. Ligand-to-buffer and buffer-to-galectin titrations were performed as controls. Ligands were titrated in 19 injections of 2 µl aliquots with 120 s spacing between injections to allow baseline recovery. The ITC titration data were analysed using MicroCal Data Analysis for iTC200 which is an Origin 7.0-based software programme. A curve fit using the ‘One set of sites’ interaction model was used to determine the association constant (KA), stoichiometry of binding (N) and enthalpy change (∆H) for all the interactions of simple sugars with the galectins except F3, where a logistic fit was used due to the nature of F3 as a mixture of heterogeneous polysaccharides.

galectin-3 [2] = target: T2, galectin-3 (Homo sapiens, UniProt P17931); test: Tryptophan fluorescence spectroscopy (TFS) of galectin-3-ligand interaction; assay type: binding; conditions: for Kd: galectin-3 10 µM, PBS, 25 °C, One site-Specific binding model; for maximum ligand binding-induced change of intrinsic fluorescence intensity: galectin-3, buffer control titration subtracted; for shift of fluorescence emission maximum to lower wavelength (blue shift): galectin-3, ligand titration
T2 construct: full-length human galectin-3 (residues 1–250, UniProt code: P17931); His-tag (N, cleaved yes); made in house; host or cells: E. coli BL21(DE3)
Description: (§2) All tryptophan fluorescence spectroscopy experiments were performed using CARY Eclipse Fluorescence Spectrophotometer (Varian Inc. Santa Clara, California, USA) and a 3 ml quartz cuvette. […] The temperature was maintained constant at 25 °C by an external thermostatic water circulator. […] Control buffer titrations to galectin solutions were performed in parallel for background determination in each experiment. Data from three independent experiments were analysed using nonlinear regression with ‘One Site- Specific Binding’ model (Y = Bmax * X/(KD + X) where X is the ligand concentration, Y is the fluorescence intensity, Bmax is the maximum specific binding and KD is the equilibrium binding constant) in GraphPad Prism 7.04.

galectin-4 [3] = target: T3, galectin-4 (Homo sapiens, UniProt P56470); test: ITC of galectin-4-ligand interaction; assay type: binding; conditions: for binding by ITC (in words): galectin-4 100 µM, 200 mM galactose
T3 construct: 6xHis-SUMO (N, cleaved yes); made in house; host or cells: E. coli BL21(DE3)
T3 sequence (P56470 1-323): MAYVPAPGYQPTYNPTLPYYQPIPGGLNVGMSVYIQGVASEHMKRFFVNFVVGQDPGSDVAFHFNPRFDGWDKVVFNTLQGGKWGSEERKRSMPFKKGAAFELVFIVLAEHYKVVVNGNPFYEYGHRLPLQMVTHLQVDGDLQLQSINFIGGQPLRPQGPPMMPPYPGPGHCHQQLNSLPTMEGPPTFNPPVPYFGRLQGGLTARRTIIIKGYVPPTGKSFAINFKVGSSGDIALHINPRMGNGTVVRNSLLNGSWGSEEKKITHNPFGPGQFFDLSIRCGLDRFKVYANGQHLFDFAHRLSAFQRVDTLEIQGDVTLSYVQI
Description: as §1

galectin-2 [4] = target: T1, galectin-2; test: TFS of galectin-2-ligand interaction; assay type: binding; conditions: for blue shift of maximum fluorescence peak: galectin-2; for Kd: galectin-2 20 µM, PBS, 25 °C, mean ± SEM; for maximum ligand binding-induced fluorescence intensity change: galectin-2, buffer titration subtracted
Description: as §2, with “circulator. To measure galectin-ligand interactions, recombinant galectin-2 at 20 µM, galectin-3 at 10 µM and galectin-4, -4N and -4C at 5 µM were allowed to equilibrate in PBS for 10–30 minutes under constant stirring before being titrated with testing carbohydrate ligand solutions.” for “circulator.”

galectin-4C = tested on: galectin-4C; design: method as in PMID 15464951, PMID 26077389; conditions: fluorescence anisotropy, LacNAc vs lactose; cited from earlier work
[5] = target: T4, galectin-4C (residues 153–323) (Homo sapiens, UniProt P56470); test: TFS of galectin-4C-ligand interaction; assay type: binding; conditions: galectin-4C 5 µM, PBS, 25 °C
T4 construct: His-tag (pET47b, HRV3C-cleavable) (cleaved yes); made in house; host or cells: E. coli BL21(DE3)
T4 sequence (P56470 153-323): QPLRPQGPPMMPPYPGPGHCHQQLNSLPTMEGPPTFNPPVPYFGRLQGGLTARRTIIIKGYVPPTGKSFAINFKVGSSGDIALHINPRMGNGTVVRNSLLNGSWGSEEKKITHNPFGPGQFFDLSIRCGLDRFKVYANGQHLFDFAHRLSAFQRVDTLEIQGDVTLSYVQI
Description: as §2, with “circulator. To measure galectin-ligand interactions, recombinant galectin-2 at 20 µM, galectin-3 at 10 µM and galectin-4, -4N and -4C at 5 µM were allowed to equilibrate in PBS for 10–30 minutes under constant stirring before being titrated with testing carbohydrate ligand solutions.” for “circulator.”

galectin-4 [6] = target: T3, galectin-4; test: TFS of galectin-4-ligand interaction; assay type: binding; conditions: for Kd: full-length galectin-4 5 µM, PBS, 25 °C; for blue shift of maximum fluorescence peak: galectin-4; for maximum ligand binding-induced fluorescence intensity change: galectin-4, control buffer titration deducted
Description: as §2, with “circulator. To measure galectin-ligand interactions, recombinant galectin-2 at 20 µM, galectin-3 at 10 µM and galectin-4, -4N and -4C at 5 µM were allowed to equilibrate in PBS for 10–30 minutes under constant stirring before being titrated with testing carbohydrate ligand solutions.” for “circulator.”

[7] = target: T4, galectin-4C (residues 153–323); test: ITC of galectin-4C-ligand interaction; assay type: binding; conditions: for binding by ITC (in words): galectin-4C 100 µM
Description: as §1

galectin-3 [8] = target: T2, galectin-3; test: Isothermal titration calorimetry (ITC) of galectin-3-ligand interaction; assay type: binding; conditions: for Kd: galectin-3 100 µM, PBS, 25 °C
Description: ITC experiments were performed at 25 °C using a MicroCal iTC200 microcalorimeter (Malvern Analytical Ltd, Malvern, UK) with 200 µl cell capacity and 40 µl injection syringe volume. […] Ligand-to-buffer and buffer-to-galectin titrations were performed as controls. Ligands were titrated in 19 injections of 2 µl aliquots with 120 s spacing between injections to allow baseline recovery. The ITC titration data were analysed using MicroCal Data Analysis for iTC200 which is an Origin 7.0-based software programme.

[9] = target: T5, galectin-4N (residues 1–152) (Homo sapiens, UniProt P56470); test: TFS of galectin-4N-ligand interaction; assay type: binding; conditions: galectin-4N 5 µM, PBS, 25 °C
T5 construct: N-terminal galectin-4 (galectin-4N, residues 1–152); His-tag (pET47b, HRV3C-cleavable) (cleaved yes); made in house; host or cells: E. coli BL21(DE3)
T5 sequence (P56470 1-152): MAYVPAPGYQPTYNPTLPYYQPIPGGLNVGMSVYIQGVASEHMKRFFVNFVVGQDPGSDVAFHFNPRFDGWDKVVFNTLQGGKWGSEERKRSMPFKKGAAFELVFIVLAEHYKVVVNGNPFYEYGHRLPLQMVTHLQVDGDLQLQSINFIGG
Description: as §2, with “circulator. To measure galectin-ligand interactions, recombinant galectin-2 at 20 µM, galectin-3 at 10 µM and galectin-4, -4N and -4C at 5 µM were allowed to equilibrate in PBS for 10–30 minutes under constant stirring before being titrated with testing carbohydrate ligand solutions.” for “circulator.”

galectin-2 [10] = target: galectin-2; design: method as in PMID 12223272; conditions: frontal affinity chromatography, read-out: binding affinity; cited from earlier work
galectin-4 [11] = target: galectin-4; design: method as in PMID 15546874; conditions: SPR, read-out: binding affinity; cited from earlier work
[12] = target: T5, galectin-4N (residues 1–152); test: ITC of galectin-4N-ligand interaction; assay type: binding; conditions: galectin-4N 100 µM, 200 mM galactose
Description: as §1

T2 sequence (P17931 whole entry, the tested form may be a part): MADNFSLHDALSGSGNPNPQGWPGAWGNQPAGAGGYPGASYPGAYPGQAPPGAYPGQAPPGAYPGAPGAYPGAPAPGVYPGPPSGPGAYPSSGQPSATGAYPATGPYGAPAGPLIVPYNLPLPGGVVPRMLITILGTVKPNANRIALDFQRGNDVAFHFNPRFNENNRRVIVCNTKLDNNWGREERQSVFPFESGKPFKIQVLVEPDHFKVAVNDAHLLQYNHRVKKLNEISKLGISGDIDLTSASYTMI

CC(=O)N[C@H]1C(O)O[C@H](CO)[C@@H](O[C@@H]2O[C@H](CO)[C@H](O)[C@H](O)[C@H]2O)[C@@H]1O (stereo partly drawn) [LacNAc, N-Acetyl-D-lactosamine]
Kd (galectin-2 [1]; ITC, galectin-2 100 µM, PBS, 25 °C, mean ± SEM, n=3, read-out: KD): 0.554 ± 0.108 mM | fold stronger binding than lactose (galectin-2 [1]; ITC, galectin-2, LacNAc vs lactose): ~ 2 fold | Kd (galectin-3 [2]; mean ± SEM, n=3): 0.0279 ± 0.0046 mM | maximum ligand binding-induced change of intrinsic fluorescence intensity (galectin-3 [2]): 26 units | shift of fluorescence emission maximum to lower wavelength (blue shift) (galectin-3 [2]): 9–10 nm | Kd (galectin-4 [3]; full-length galectin-4 100 µM, PBS, 25 °C, read-out: KD): 3.5 ± 0.5 mM | blue shift of maximum fluorescence peak (galectin-2 [4]): 10 nm | Kd (galectin-2 [4]; n=3, read-out: KD): 0.654 ± 0.155 mM | maximum ligand binding-induced fluorescence intensity change (galectin-2 [4]): 52 units | fold weaker binding than lactose (galectin-4C): at least 11 fold | Kd [5]: 12.1 ± 0.7 mM | Kd (galectin-4 [6]; read-out: KD): 9.3 ± 0.8 mM | blue shift of maximum fluorescence peak (galectin-4 [6]): 5 nm | maximum ligand binding-induced fluorescence intensity change (galectin-4 [6]): 50 units | binding by ITC (in words) [7]: very too weak and mostly beyond detection | enthalpy ∆H of binding (galectin-3 [8]; galectin-3): -16.5 kcal/mol | Kd (galectin-3 [8]; One set of sites model, mean ± SEM, n=3): 0.024 ± 0.0036 mM | difference in enthalpy change to lactose (galectin-3 [8]; galectin-3, LacNAc vs lactose): 4.4 kcal/mol | fold stronger binding than lactose (galectin-3 [8]; galectin-3, LacNAc vs lactose): ~ 4 fold | difference in binding enthalpy to galactose (galectin-3 [8]; galectin-3, weakest ligand galactose to strongest ligand LacNAc): 6.1 kcal/mol | Kd [9]: 7.4 ± 0.9 mM

α-lactose
Kd (galectin-2 [10]): 1.1 mM | maximum ligand binding-induced change of intrinsic fluorescence intensity (galectin-3 [2]): 21 units | shift of fluorescence emission maximum to lower wavelength (blue shift) (galectin-3 [2]): 9–10 nm | blue shift of maximum fluorescence peak (galectin-2 [4]): 7 nm | maximum ligand binding-induced fluorescence intensity change (galectin-2 [4]): 59 units | blue shift of maximum fluorescence peak (galectin-4 [6]): 10 nm | maximum ligand binding-induced fluorescence intensity change (galectin-4 [6]): 49 units | Kd (galectin-4 [11]): 0.86 mM

O=C[C@H](O)[C@@H](O)[C@@H](O)[C@H](O)CO [galactose, D-galactose]
Kd (galectin-2 [1]): > 1 mM | binding by ITC (in words) (galectin-2 [1]; ITC, galectin-2 100 µM): too weak to be determined | binding by ITC (in words) (galectin-2 [1]; ITC, galectin-2 100 µM, listed as Galactose): too weak to be reliably determined | Kd (galectin-3 [2]): 4.7 mM and ~5 mM | maximum ligand binding-induced change of intrinsic fluorescence intensity (galectin-3 [2]): 28 units | shift of fluorescence emission maximum to lower wavelength (blue shift) (galectin-3 [2]): 9–10 nm | binding by ITC (in words) [12]: very little, if any, binding taking place; also recorded: very too weak and mostly beyond detection | binding by ITC (in words) (galectin-4 [3]): too weak to be determined | binding by ITC (in words) (galectin-4 [3]; listed as Galactose): too weak to be reliably determined | Kd (galectin-4 [3]; galectin-4, Fig. 5I, read-out: KD (class symbol in figure)): > 1 mM | Kd (galectin-2 [4]; KD, n=3): 35.6 mM and 30 to 40 mM | blue shift of maximum fluorescence peak (galectin-2 [4]): 6 nm | maximum ligand binding-induced fluorescence intensity change (galectin-2 [4]): 57 units | Kd [5]: 33.8 ± 3 mM | Kd (galectin-4 [6]; KD): 33.6 mM and 30 to 40 mM | blue shift of maximum fluorescence peak (galectin-4 [6]): 4 nm | maximum ligand binding-induced fluorescence intensity change (galectin-4 [6]): 80 units | binding by ITC (in words) [7]: very too weak and mostly beyond detection | Kd ([7]; galectin-4C, Fig. 7G,I, read-out: KD (class symbol in figure)): > 1 mM | Kd (galectin-3 [8]; One set of sites model (F3: logistic fit)): 3.1 ± 1.1 mM | Kd [9]: 43.3 ± 5.2 mM
